Measured values as given in BindingDB's records for patent US20250313563 (The Broad Institute, 2025).
Several values for one entry are separate records, joined by “and”; a condition that tells them apart may be missing. Equal values may be shown once.

Assays:
[1] = biological target: Glycogen synthase kinase-3 beta (Homo sapiens, UniProt P49841); test: TR-FRET Assay
Summary of the method: (§1)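 Signal is measured as TR-FRET between a terbium anti-phospho-Ser641 antibody and streptavidin-d2, added after an EDTA quench. Compounds are preincubated 30 min in assay buffer.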

[2] = biological target: Glycogen synthase kinase-3 alpha (Homo sapiens, UniProt P49840); test: TR-FRET Assay
Summary of the method: as §1

Chain of Glycogen synthase kinase-3 beta (P49841 whole entry): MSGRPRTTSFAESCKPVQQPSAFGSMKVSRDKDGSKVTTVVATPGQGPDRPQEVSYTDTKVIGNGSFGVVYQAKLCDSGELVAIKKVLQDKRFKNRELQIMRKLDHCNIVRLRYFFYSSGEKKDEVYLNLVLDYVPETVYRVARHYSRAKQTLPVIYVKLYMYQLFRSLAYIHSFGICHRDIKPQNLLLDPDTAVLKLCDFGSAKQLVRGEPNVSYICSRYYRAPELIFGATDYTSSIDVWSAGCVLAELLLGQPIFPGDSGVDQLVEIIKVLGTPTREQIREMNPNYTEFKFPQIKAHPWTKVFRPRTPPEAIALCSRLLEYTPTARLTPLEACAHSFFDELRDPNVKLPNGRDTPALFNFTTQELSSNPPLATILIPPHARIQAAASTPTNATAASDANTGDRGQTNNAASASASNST
Chain of Glycogen synthase kinase-3 alpha (P49840 whole entry): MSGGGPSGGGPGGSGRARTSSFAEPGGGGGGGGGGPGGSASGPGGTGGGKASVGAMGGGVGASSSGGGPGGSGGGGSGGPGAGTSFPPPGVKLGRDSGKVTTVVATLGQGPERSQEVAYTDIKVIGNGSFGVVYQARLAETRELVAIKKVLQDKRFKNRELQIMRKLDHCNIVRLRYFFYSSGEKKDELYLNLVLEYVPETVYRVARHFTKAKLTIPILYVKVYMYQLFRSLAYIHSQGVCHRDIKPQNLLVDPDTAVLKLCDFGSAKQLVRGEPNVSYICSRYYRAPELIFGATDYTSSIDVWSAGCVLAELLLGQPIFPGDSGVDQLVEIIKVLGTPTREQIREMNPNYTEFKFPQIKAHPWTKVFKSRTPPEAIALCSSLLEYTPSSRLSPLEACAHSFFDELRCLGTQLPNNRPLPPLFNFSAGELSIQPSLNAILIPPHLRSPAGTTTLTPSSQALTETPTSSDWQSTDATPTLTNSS

Structure (SMILES) | IC50 [1] | IC50 [2]
CC1(C)CC(=O)C2=C(C1)NC1=C(CN=N1)C21COC2(CN(S(=O)(=O)c3ccccc3)C2)C1 (centres undefined) [US20250313563, Compound 913002] | 1000 to 5000 nM | 100 to 1000 nM
CC[C@]1(c2cccc(C(F)(F)F)c2)C2=CN=NC2NC2=C1C(=O)NC(C)(C)C2 (some centres undefined) [US20250313563, Compound 913004] | > 5000 nM | > 5000 nM
CC[C@@]1(c2cccc(-c3ccncc3)c2)C2=C(CC(C)(C)CC2=O)NC2N=NC(C)=C21 (some centres undefined) [US20250313563, Compound 913015] | < 100 nM | < 100 nM
CC[C@@]1(c2cccc(-c3ccnc(OC)c3)c2)C2=C(CC(C)(C)CC2=O)NC2N=NC(C)=C21 (some centres undefined) [US20250313563, Compound 913016] | 1000 to 5000 nM | 100 to 1000 nM
CC[C@@]1(c2cccc(-c3ccncc3F)c2)C2=C(CC(C)(C)CC2=O)NC2N=NC(C)=C21 (some centres undefined) [US20250313563, Compound 913017] | 100 to 1000 nM | 100 to 1000 nM
CC[C@@]1(c2cccc(-c3ccnc(C)c3)c2)C2=C(CC(C)(C)CC2=O)NC2N=NC(C)=C21 (some centres undefined) [US20250313563, Compound 913018] | 1000 to 5000 nM | 100 to 1000 nM
CC[C@@]1(c2cccc(-c3cc(C)ncc3C)c2)C2=C(CC(C)(C)CC2=O)NC2N=NC(C)=C21 (some centres undefined) [US20250313563, Compound 913019] | 1000 to 5000 nM | 100 to 1000 nM
CC[C@@]1(c2cccc(-c3ccnc(N(C)C)c3)c2)C2=C(CC(C)(C)CC2=O)NC2N=NC(C)=C21 (some centres undefined) [US20250313563, Compound 913021] | < 100 nM | < 100 nM
CC[C@@]1(c2cccc(-c3ccncc3C)c2)C2=C(CC(C)(C)CC2=O)NC2N=NC(C)=C21 (some centres undefined) [US20250313563, Compound 913022] | 1000 to 5000 nM | 100 to 1000 nM
CC[C@@]1(c2cccc(-c3cnn(C)c3C)c2)C2=C(CC(C)(C)CC2=O)NC2N=NC(C)=C21 (some centres undefined) [US20250313563, Compound 913024] | 1000 to 5000 nM | 100 to 1000 nM
CC[C@@]1(c2cccc(-c3c(C)nn(C)c3C)c2)C2=C(CC(C)(C)CC2=O)NC2N=NC(C)=C21 (some centres undefined) [US20250313563, Compound 913026] | 100 to 1000 nM | 100 to 1000 nM
CC[C@@]1(c2cccc(-c3cnn(CCOC)c3)c2)C2=C(CC(C)(C)CC2=O)NC2N=NC(C)=C21 (some centres undefined) [US20250313563, Compound 913027] | < 100 nM | < 100 nM
CC[C@@]1(c2cccc(-c3cn(C)nc3C(C)C)c2)C2=C(CC(C)(C)CC2=O)NC2N=NC(C)=C21 (some centres undefined) [US20250313563, Compound 913029] | < 100 nM | < 100 nM
CC[C@@]1(c2cccc(-c3ccn(C)n3)c2)C2=C(CC(C)(C)CC2=O)NC2N=NC(C)=C21 (some centres undefined) [US20250313563, Compound 913030] | < 100 nM and 100 to 1000 nM | < 100 nM and 100 to 1000 nM
CC[C@@]1(c2cccc(-c3cncn3C)c2)C2=C(CC(C)(C)CC2=O)NC2N=NC(C)=C21 (some centres undefined) [US20250313563, Compound 913032] | < 100 nM | < 100 nM
CC[C@@]1(c2cccc(-c3cnn4c3CCCC4)c2)C2=C(CC(C)(C)CC2=O)NC2N=NC(C)=C21 (some centres undefined) [US20250313563, Compound 913033] | 1000 to 5000 nM | 100 to 1000 nM
CC[C@]1(c2cccc(-c3cn(C)nc3C)c2)C2=C(CC(C)(C)CC2=O)NC2N=NC(C)=C21 (some centres undefined) [US20250313563, Compound 913035] | < 100 nM and 100 to 1000 nM | < 100 nM
CC[C@]1(c2cccc(-c3cncn3C)c2)C2=C(CC(C)(C)CC2=O)NC2N=NC(C)=C21 (some centres undefined) [US20250313563, Compound 913037] | 100 to 1000 nM | < 100 nM
CC[C@]1(c2cccc(-c3cnn(C)c3)c2)C2=C(CC(C)(C)CC2=O)NC2N=NC(C)=C21 (some centres undefined) [US20250313563, Compound 913038] | 1000 to 5000 nM | 100 to 1000 nM
CC[C@]1(c2cccc(-c3cn(C)nc3C(C)C)c2)C2=C(CC(C)(C)CC2=O)NC2N=NC(C)=C21 (some centres undefined) [US20250313563, Compound 913040] | 1000 to 5000 nM | 100 to 1000 nM
CC[C@@]1(c2cccc(-c3cnn(C4CC4)c3)c2)C2=CN=NC2NC2=C1C(=O)CC(C)(C)C2 (some centres undefined) [US20250313563, Compound 913041] | > 5000 nM | 1000 to 5000 nM
CC[C@]1(c2cccc(-c3cnn(CCOC)c3)c2)C2=C(CC(C)(C)CC2=O)NC2N=NC(C)=C21 (some centres undefined) [US20250313563, Compound 913042] | > 5000 nM | > 5000 nM
CC[C@]1(c2cccc(-c3c(C)nn(C)c3C)c2)C2=C(CC(C)(C)CC2=O)NC2N=NC(C)=C21 (some centres undefined) [US20250313563, Compound 913043] | < 100 nM and 100 to 1000 nM | < 100 nM
CC[C@]1(c2cccc(C3=CN=NC3)c2)C2=C(CC(C)(C)CC2=O)NC2N=NC(C)=C21 (some centres undefined) [US20250313563, Compound 913044] | 100 to 1000 nM | 100 to 1000 nM
CC[C@]1(c2cccc(-c3ccnn3C)c2)C2=C(CC(C)(C)CC2=O)NC2N=NC(C)=C21 (some centres undefined) [US20250313563, Compound 913046] | > 5000 nM | 1000 to 5000 nM and > 5000 nM
CC[C@@]1(c2cccc(-c3ccncc3C)c2)C2=CN=NC2NC2=C1C(=O)CC(C)(C)C2 (some centres undefined) [US20250313563, Compound 913047] | < 100 nM and 100 to 1000 nM | < 100 nM

Structure (SMILES) | IC50 [1] | IC50 [2]
CC[C@]1(c2cccc(-c3ccnc(N(C)C)c3)c2)C2=C(CC(C)(C)CC2=O)NC2N=NC(C)=C21 (some centres undefined) [US20250313563, Compound 913048] | 1000 to 5000 nM | 100 to 1000 nM
CC[C@]1(c2cccc(-c3cc(C)ncc3C)c2)C2=C(CC(C)(C)CC2=O)NC2N=NC(C)=C21 (some centres undefined) [US20250313563, Compound 913050] | < 100 nM and 100 to 1000 nM | < 100 nM
CC[C@]1(c2cccc(-c3ccncc3)c2)C2=C(CC(C)(C)CC2=O)NC2N=NC(C)=C21 (some centres undefined) [US20250313563, Compound 913054] | 1000 to 5000 nM | 100 to 1000 nM
CC1(C)CC(=O)C2=C(C1)NC1=C(CN=N1)C21CCC2(CCC(=O)N2)CC1 (centres undefined) [US20250313563, Compound 913056] | 1000 to 5000 nM | 100 to 1000 nM
CC1(C)CC(=O)C2=C(C1)NC1=C(CN=N1)[C@@]21COC2(CN(S(C)(=O)=O)C2)C1 [US20250313563, Compound 913057] | < 100 nM | < 100 nM
CC(=O)N1CC2(C1)CC1(CO2)C2=C(N=NC2)NC2=C1C(=O)CC(C)(C)C2 (centres undefined) [US20250313563, Compound 913058] | < 100 nM and 100 to 1000 nM | < 100 nM
CCC1(c2cccc(N(C)c3cccc(OC)n3)c2)C2=CN=NC2NC2=C1C(=O)CC(C)(C)C2 (centres undefined) [US20250313563, Compound 913121] | 100 to 1000 nM | < 100 nM
CCC1(c2cccc(N(C)c3cccc(C(F)(F)F)n3)c2)C2=CN=NC2NC2=C1C(=O)CC(C)(C)C2 (centres undefined) [US20250313563, Compound 913122] | 100 to 1000 nM | 100 to 1000 nM
CCC1(c2cccc(S(=O)(=O)c3ccccc3)c2)C2=CN=NC2NC2=C1C(=O)CC(C)(C)C2 (centres undefined) [US20250313563, Compound 913123] | < 100 nM and 100 to 1000 nM | < 100 nM
CCC1(c2cc(N(C)C(C)=O)ccc2F)C2=CN=NC2NC2=C1C(=O)CC(C)(C)C2 (centres undefined) [US20250313563, Compound 913124] | 100 to 1000 nM | 100 to 1000 nM
CCC1(c2cccc(N(C)C(=O)CN3CCCC3)c2)C2=CN=NC2NC2=C1C(=O)CC(C)(C)C2 (centres undefined) [US20250313563, Compound 913125] | 100 to 1000 nM | < 100 nM
CC1(C)CC(=O)C2=C(C1)NC1=C(CN=N1)C21CCCSCC1 (centres undefined) [US20250313563, Compound 913126] | 100 to 1000 nM | < 100 nM
CC1(C)CC(=O)C2=C(C1)NC1=C(CN=N1)C21CCN(S(=O)(=O)C2CCOCC2)CC1 [US20250313563, Compound 913127] | < 100 nM and 100 to 1000 nM | < 100 nM
CC1(C)CC(=O)C2=C(C1)NC1=C(CN=N1)C21CCN(S(=O)(=O)C2CCCCC2)CC1 [US20250313563, Compound 913128] | < 100 nM and 100 to 1000 nM | < 100 nM
CC(C)S(=O)(=O)N1CCC2(CC1)C1=C(N=NC1)NC1=C2C(=O)CC(C)(C)C1 [US20250313563, Compound 913129] | < 100 nM and 100 to 1000 nM | < 100 nM
CC[C@]1(c2cccc(S(=O)(=O)C(C)C)c2)C2=CN=NC2NC2=C1C(=O)CC(C)(C)C2 (some centres undefined) [US20250313563, Compound 913134] | 1000 to 5000 nM | 100 to 1000 nM
Cc1cccc2c1CC[C@@]21C2=C(N=NC2)NC2=C1C(=O)CC(C)(C)C2 [US20250313563, Compound 913136] | 100 to 1000 nM | < 100 nM
Cc1cccc2c1CC[C@]21C2=C(N=NC2)NC2=C1C(=O)CC(C)(C)C2 [US20250313563, Compound 913137] | > 5000 nM | > 5000 nM
CC1(C)CC(=O)C2=C(C1)NC1=C(CN=N1)[C@]21C[C@@]2(CCN(CC(F)(F)F)C2)C1 [US20250313563, Compound 913138] | 100 to 1000 nM | 100 to 1000 nM
CC1(C)CC(=O)C2=C(C1)NC1=C(CN=N1)[C@]21C[C@@]2(CCN(CC(F)F)C2)C1 [US20250313563, Compound 913139] | 100 to 1000 nM | 100 to 1000 nM
CC[C@]1(c2cccc(N3CCC3(C)C)c2)C2=CN=NC2NC2=C1C(=O)CC(C)(C)C2 (some centres undefined) [US20250313563, Compound 913140] | 100 to 1000 nM | < 100 nM
CC[C@@]1(c2cccc(N3CCC3(C)C)c2)C2=CN=NC2NC2=C1C(=O)CC(C)(C)C2 (some centres undefined) [US20250313563, Compound 913141] | 1000 to 5000 nM | 100 to 1000 nM
CCC1(c2cccc(C(F)(F)F)c2)C2=C(N=NC2)NC2=C1C(=O)NC2 (centres undefined) [US20250313563, Compound 913156] | > 5000 nM | 100 to 1000 nM
CCC1(c2cccc(C(C)(C)F)c2)C2=CN=NC2NC2=C1C(=O)N(C)CC2 (centres undefined) [US20250313563, Compound 913178] | 1000 to 5000 nM | 100 to 1000 nM
CC1(C)CC(=O)C2=C(C1)NC1=C(CN=N1)[C@]21CO[C@H](C2CC2)C1 [US20250313563, Compound 913184] | 1000 to 5000 nM | 100 to 1000 nM
CCC1(c2cccc(C(F)(F)F)c2)C2=C(N=NC2)NC2=C1C(=O)N(C)C2(C)C (centres undefined) [US20250313563, Compound 913198] | 100 to 1000 nM | < 100 nM
